According to US20010049373A1, “Materials and methods for killing nematodes and nematode eggs” (priority 2000, published 2001):

Key:
Caenorhabditis elegans [1] = experiment: C. elegans L1 larvae dose-response, 5 day visual viability score (Examples 2 and 7); assay type: in vivo; set-up: key: Dead: only stiff L1s (no movement); Dead (L4): worms are dead, but at a later larval stage; majority of worms are L1 (based on size); majority of worms are L2 (based on size); majority of worms are L3 (based on size); majority of worms are L4 (based on size); AD: majority of worms are adult; #AD: 5 adult worms or less; B!: sterile (0-25 progeny); B: low broodsize (25-100 progeny); ˜B: moderate broodsize (100-250 progeny); <: reduced broodsize (250-500 progeny); OK: no effect (˜1000+ progeny); details: day 5, Table 3; for 5 Day Visual Score V6: 0.3 μM (procedure of Example 2); for 5 Day Visual Score V5: 0.9 μM (procedure of Example 2); for 5 Day Visual Score V4: 2.6 μM (procedure of Example 2); for 5 Day Visual Score V3: 7.8 μM (procedure of Example 2); for 5 Day Visual Score V2: 23.3 μM (procedure of Example 2); for 5 Day Visual Score V1: 70 μM (procedure of Example 2)
Experimental: Caenorhabditis elegans adults were grown on Nematode Growth Medium (NGM) until they produced eggs, then the adults were removed.
The eggs were allowed to hatch, and the L1 larvae collected. See The Neniatode Caenorhabditis elegans (1988) Cold Spring Harbor Laboratory Press. Using a Matrix Programmable Pipette, the L1s were distributed into 96-well tissue culture plates, 20 L1 in 50 μl NGM per well. Antibiotic/Antimyotic was added to each well, and 1% by weight E. coli strain HB101. The subject anthelmintic compounds were stored at 5 mM in 100% DMSO. 0.7 μl of compounds 1-31 were added to the left-most column of wells to yield a final concentration of 70 μM in 1.4% DMSO, with 1.4% DMSO only as the control. The compounds were then subjected to 5 more 3-fold dilutions from left to right to yield 6 column concentrations of 70 μM, 23.3 μM, 7.8 μM, 2.6 μM, 0.9 μM, and 0.3 μM. Plates were stored in air-tight Rubbermaid plastic boxes at 20° C. The nematodes had cleared all control wells by day 4, and nematode viability was scored by visual examination under a 100× dissecting microscope on day 5. A visual viability scoring system was used as follows:
If several classes of worms exist in a well, then all classes are scored. If adults are present, then the brood score is also recorded. Thus, “L1/L2” would mean a mixture of L1's and L2's are present in the well. “L4/#AD/B” would mean that a mixture of L4's and adults are resent in the well. The “#AD” would mean that there are 6 or less adults, and the “B” would mean that there were 100 progeny or less.
Column VI has a compound concentration of 70 μM with sequential 3-fold dilutions reported in columns V2, V3, V4, V5, and V6, respectively, such that the V6 concentration was 0.3 μM.
(§1) The nematicidal activity of anthelmintic Compositions 48-118 were determined in accordance with the procedure outlined in Example 2.

Caenorhabditis elegans [2] = experiment: HTS runs (initial and follow-up): mOD, % Run and visual score (Table 3); assay type: in vivo; set-up: key to Initial HTS Run Visual Score / Follow-up HTS Run Visual Score: Dead: only stiff L1s (no movement); Dead (L4): worms are dead, but at a later larval stage; majority of worms are L1 (based on size); majority of worms are L2 (based on size); majority of worms are L3 (based on size); majority of worms are L4 (based on size); AD: majority of worms are adult; #AD: 5 adult worms or less; B!: sterile (0-25 progeny); B: low broodsize (25-100 progeny); ˜B: moderate broodsize (100-250 progeny); <: reduced broodsize (250-500 progeny); OK: no effect (˜1000+ progeny)
Experimental: as §1

| Compound | 5 Day Visual Score V6 (Caenorhabditis elegans [1]) | 5 Day Visual Score V5 (Caenorhabditis elegans [1]) | 5 Day Visual Score V4 (Caenorhabditis elegans [1]) | 5 Day Visual Score V3 (Caenorhabditis elegans [1]) | 5 Day Visual Score V2 (Caenorhabditis elegans [1]) | Follow-up HTS Run % Run (Caenorhabditis elegans [2]) [%] | Follow-up HTS Run Visual Score (Caenorhabditis elegans [2]) | Follow-up HTS Run mOD (Caenorhabditis elegans [2]) [mOD] | Initial HTS Run % Run (Caenorhabditis elegans [2]) [%] | Initial HTS Run Visual Score (Caenorhabditis elegans [2]) | Initial HTS Run mOD (Caenorhabditis elegans [2]) [mOD] | 5 Day Visual Score V1 (Caenorhabditis elegans [1]) |
| --- | --- | --- | --- | --- | --- | --- | --- | --- | --- | --- | --- | --- |
| CCC(C)Nc1cc(Oc2ccc3oc4ccccc4c3c2)ncn1 (stereo not shown) [AKC 349] | OK (no effect (˜1000+ progeny)) | OK (no effect (˜1000+ progeny)) | OK (no effect (˜1000+ progeny)) | #AD/˜B | OK (no effect (˜1000+ progeny)) | 103 | B (low broodsize (25-100 progeny)) | 139 | 127 | 2AD/B! | 247 |  |
| CCN(C)c1cc(Oc2ccc3ccccc3c2)ncn1 [AKC 350] | OK (no effect (˜1000+ progeny)) | OK (no effect (˜1000+ progeny)) | OK (no effect (˜1000+ progeny)) |  | L1 | 101 | Dead | 136 | 126 | Dead | 245 | L1 |
| Fc1ccc(F)c(CNc2cc(Oc3cccc(Cl)c3)ncn2)c1 [AKC 354] | < (reduced broodsize (250-500 progeny)) | OK (no effect (˜1000+ progeny)) | < (reduced broodsize (250-500 progeny)) | #AD/˜B |  | 108 | B (low broodsize (25-100 progeny)) | 146 | 137 | 1AD/B | 267 | Dead |
| FC(F)(F)c1ccc(CNc2cc(Oc3cccc(Cl)c3)ncn2)cc1 [AKC 356] | < (reduced broodsize (250-500 progeny)) | OK (no effect (˜1000+ progeny)) | OK (no effect (˜1000+ progeny)) |  | Dead | 122 | L2 | 165 | 139 | Dead | 272 | Dead |
| COc1ccc(Oc2cc(NCc3ccc(C(F)(F)F)cc3)ncn2)cc1 [AKC 357] | OK (no effect (˜1000+ progeny)) | OK (no effect (˜1000+ progeny)) | OK (no effect (˜1000+ progeny)) |  |  | 98 | L4/AD/B! | 132 | 115 | 3AD/B | 224 | Dead |
| Fc1ccc(Oc2cc(NCc3ccc(C(F)(F)F)cc3)ncn2)cc1 [AKC 358] | OK (no effect (˜1000+ progeny)) | OK (no effect (˜1000+ progeny)) | OK (no effect (˜1000+ progeny)) |  | Dead | 113 | L3-Dead L3 | 153 | 129 | Dead | 252 | Dead |
| FC(F)(F)c1ccc(CNc2cc(Oc3ccccc3Cl)ncn2)cc1 [AKC 360] | OK (no effect (˜1000+ progeny)) | OK (no effect (˜1000+ progeny)) | OK (no effect (˜1000+ progeny)) | OK (no effect (˜1000+ progeny)) | Dead | 112 | L4/AD/B! | 151 | 139 | 1AD/B!-No P | 272 | Dead |
| CN(c1cc(Oc2ccc(-c3ccccc3)cc2)ncn1)C1CCCCC1 [AKC 363] | OK (no effect (˜1000+ progeny)) | OK (no effect (˜1000+ progeny)) | OK (no effect (˜1000+ progeny)) | ˜B (moderate broodsize (100-250 progeny)) | < (reduced broodsize (250-500 progeny)) | 122 | Dead | 165 | 141 | Dead | 275 | Dead |
| Clc1cccc(CNc2cc(Oc3cccc(Cl)c3)ncn2)c1 [AKC 364] | OK (no effect (˜1000+ progeny)) | OK (no effect (˜1000+ progeny)) | < (reduced broodsize (250-500 progeny)) | ˜B (moderate broodsize (100-250 progeny)) |  | 108 | L4/AD/B! | 146 | 121 | 4AD/˜B | 236 | Dead(L2/L3) |
| Fc1ccc(Oc2cc(NCc3ccccc3F)ncn2)cc1 [AKC 367] | OK (no effect (˜1000+ progeny)) | OK (no effect (˜1000+ progeny)) | < (reduced broodsize (250-500 progeny)) | < (reduced broodsize (250-500 progeny)) | < (reduced broodsize (250-500 progeny)) | 91 | B (low broodsize (25-100 progeny)) | 123 | 123 | 2AD/B | 239 | L1 |
| Fc1ccc(Oc2cc(NCc3cc(F)cc(F)c3)ncn2)cc1 [AKC 369] | OK (no effect (˜1000+ progeny)) | OK (no effect (˜1000+ progeny)) | OK (no effect (˜1000+ progeny)) | < (reduced broodsize (250-500 progeny)) |  | 94 | B (low broodsize (25-100 progeny)) | 127 | 115 | 1AD/B | 225 | Dead |
| CC(C)(C)OC(=O)N1CCN(c2cc(Oc3ccc(F)cc3)ncn2)CC1 [AKC 373] | OK (no effect (˜1000+ progeny)) | OK (no effect (˜1000+ progeny)) | OK (no effect (˜1000+ progeny)) |  |  | 83 | B (low broodsize (25-100 progeny)) | 112 | 132 |  | 257 | L4 |
| CC(C)(C)OC(=O)N1CCN(c2cc(Oc3ccccc3Cl)ncn2)CC1 [AKC 374] | OK (no effect (˜1000+ progeny)) | OK (no effect (˜1000+ progeny)) | OK (no effect (˜1000+ progeny)) | OK (no effect (˜1000+ progeny)) |  | 114 |  | 154 | 139 | L3-Dying | 271 | Dead(L2/L3) |
